Assay results: ChEMBL document CHEMBL5154726, “Identification of triazolopyridine derivatives as a new class of AhR agonists and evaluation of anti-psoriasis effect in a mouse model” (Eur J Med Chem, 2022)
Values after ≈ are worked out from the molar mass of the structure shown. Active and inactive are the calls of the source. The calls are words filed in the database; no cut-off is given here.

Columns and labels:
[1] = AUC (0 to t) in Sprague-Dawley rat at 10 mg/kg, po measured up to 24 hrs by LC-MS/MS analysis; assay type: ADME, organism-based; parameters: dose 10 mg/kg, time < 24 hrs, route po; conditions: in vivo
Cytochrome P450 2C9 = Cytochrome P450 2C9 (Homo sapiens, UniProt P11712); experiment: Inhibition of CYP2C9 in human liver microsomes in presence of NADPH by LC-MS/MS analysis; assay type: ADME, Microsome
Cytochrome P450 2C9, sequence (P11712 whole entry): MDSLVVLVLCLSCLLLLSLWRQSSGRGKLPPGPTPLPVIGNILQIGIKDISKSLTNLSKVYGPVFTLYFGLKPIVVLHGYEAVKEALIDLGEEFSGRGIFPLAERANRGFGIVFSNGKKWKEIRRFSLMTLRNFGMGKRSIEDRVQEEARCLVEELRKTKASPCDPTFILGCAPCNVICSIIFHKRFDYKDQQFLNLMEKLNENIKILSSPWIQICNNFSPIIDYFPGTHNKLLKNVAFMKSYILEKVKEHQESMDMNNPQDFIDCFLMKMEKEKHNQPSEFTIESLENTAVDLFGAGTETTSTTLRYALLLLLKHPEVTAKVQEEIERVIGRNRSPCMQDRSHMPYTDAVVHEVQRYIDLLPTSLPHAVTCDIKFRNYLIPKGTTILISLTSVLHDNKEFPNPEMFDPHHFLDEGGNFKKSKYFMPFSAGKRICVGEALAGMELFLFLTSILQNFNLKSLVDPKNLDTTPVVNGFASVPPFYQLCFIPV

[2] = Efflux ratio of apparent permeability in MDCK cells; assay type: ADME, cell-based, Canis lupus familiaris; conditions: dog
[3] = MRT in Sprague-Dawley rat at 10 mg/kg, po measured up to 24 hrs by LC-MS/MS analysis; assay type: ADME, organism-based; conditions: in vivo
[4] = molecular target: Voltage-gated inwardly rectifying potassium channel KCNH2 (Homo sapiens, UniProt Q12809); experiment: Inhibition of hERG channel in HEK293 cells by whole-cell patch clamp assay; assay type: toxicity, cell-based
Voltage-gated inwardly rectifying potassium channel KCNH2, sequence (Q12809 whole entry): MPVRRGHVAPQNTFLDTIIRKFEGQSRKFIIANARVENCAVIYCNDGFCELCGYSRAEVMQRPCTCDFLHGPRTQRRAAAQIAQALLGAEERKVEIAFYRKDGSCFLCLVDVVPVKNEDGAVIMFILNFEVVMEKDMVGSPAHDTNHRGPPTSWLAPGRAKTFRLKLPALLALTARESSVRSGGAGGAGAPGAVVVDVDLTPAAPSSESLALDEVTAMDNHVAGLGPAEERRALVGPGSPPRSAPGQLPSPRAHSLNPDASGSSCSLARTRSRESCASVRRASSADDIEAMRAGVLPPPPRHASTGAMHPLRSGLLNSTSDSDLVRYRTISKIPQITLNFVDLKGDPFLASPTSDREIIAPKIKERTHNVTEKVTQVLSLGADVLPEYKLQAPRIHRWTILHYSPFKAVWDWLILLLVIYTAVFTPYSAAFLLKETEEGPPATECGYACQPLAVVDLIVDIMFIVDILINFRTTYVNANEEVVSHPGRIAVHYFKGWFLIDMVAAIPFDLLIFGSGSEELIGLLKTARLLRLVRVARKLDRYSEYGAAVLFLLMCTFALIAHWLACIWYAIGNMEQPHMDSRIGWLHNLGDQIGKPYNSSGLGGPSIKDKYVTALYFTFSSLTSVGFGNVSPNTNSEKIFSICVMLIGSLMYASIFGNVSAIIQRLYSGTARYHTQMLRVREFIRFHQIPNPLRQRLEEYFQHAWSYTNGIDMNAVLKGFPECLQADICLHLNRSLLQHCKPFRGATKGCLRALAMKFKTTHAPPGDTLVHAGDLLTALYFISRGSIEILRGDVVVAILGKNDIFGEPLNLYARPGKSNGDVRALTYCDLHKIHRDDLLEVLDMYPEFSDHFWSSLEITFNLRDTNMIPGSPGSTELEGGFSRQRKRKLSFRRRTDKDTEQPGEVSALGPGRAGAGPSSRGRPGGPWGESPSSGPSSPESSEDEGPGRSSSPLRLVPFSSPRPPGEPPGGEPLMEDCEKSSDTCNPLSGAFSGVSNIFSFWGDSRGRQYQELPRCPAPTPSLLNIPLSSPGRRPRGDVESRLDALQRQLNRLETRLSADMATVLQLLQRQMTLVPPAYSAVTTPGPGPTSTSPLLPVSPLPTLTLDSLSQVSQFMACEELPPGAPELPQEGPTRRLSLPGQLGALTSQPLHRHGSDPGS

Mus musculus [5] = experiment: Anti-psoriatic activity in IMQ-induced BALB/c psoriasis mouse model assessed as reduction in skin thickening at 0.1 to 1 % treated topically by H and E staining based analysis; assay type: functional, organism-based; conditions: dose 0.1-1 %
[6] = molecular target: T1, Aryl hydrocarbon receptor (Homo sapiens, UniProt P35869); experiment: Induction of Ahr nuclear translocation from cytoplasm to nucleus in human HaCaT cells at 0.01 uM incubated for 1 hr by Western blot analysis; assay type: cell-based
T1 sequence (P35869 whole entry): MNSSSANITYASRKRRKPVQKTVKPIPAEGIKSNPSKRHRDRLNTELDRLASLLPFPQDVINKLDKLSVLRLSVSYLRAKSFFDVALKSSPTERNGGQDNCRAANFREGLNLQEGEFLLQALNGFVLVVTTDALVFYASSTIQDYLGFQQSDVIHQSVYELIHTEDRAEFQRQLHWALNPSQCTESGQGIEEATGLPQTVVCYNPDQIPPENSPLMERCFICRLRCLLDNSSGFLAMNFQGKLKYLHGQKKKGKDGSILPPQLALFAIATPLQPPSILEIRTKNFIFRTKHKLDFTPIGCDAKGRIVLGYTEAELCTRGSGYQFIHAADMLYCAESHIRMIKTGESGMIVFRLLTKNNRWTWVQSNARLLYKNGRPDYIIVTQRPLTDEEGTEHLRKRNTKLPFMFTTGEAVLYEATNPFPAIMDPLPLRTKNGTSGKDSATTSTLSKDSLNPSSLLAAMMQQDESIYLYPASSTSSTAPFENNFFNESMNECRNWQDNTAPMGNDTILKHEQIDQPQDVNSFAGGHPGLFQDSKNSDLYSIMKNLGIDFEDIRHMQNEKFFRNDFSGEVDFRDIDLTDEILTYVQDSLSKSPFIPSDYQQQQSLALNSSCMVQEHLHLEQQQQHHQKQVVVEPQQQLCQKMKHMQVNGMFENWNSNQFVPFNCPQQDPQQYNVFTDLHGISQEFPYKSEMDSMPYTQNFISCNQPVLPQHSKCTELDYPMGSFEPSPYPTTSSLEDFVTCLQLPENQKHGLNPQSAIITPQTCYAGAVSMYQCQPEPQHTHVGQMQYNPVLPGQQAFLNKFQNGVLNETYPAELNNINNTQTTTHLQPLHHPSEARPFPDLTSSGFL

Cytochrome P450 3A4 = Cytochrome P450 3A4 (Homo sapiens, UniProt P08684); experiment: Inhibition of CYP3A4 in human liver microsomes in presence of NADPH by LC-MS/MS analysis; assay type: ADME, Microsome
Cytochrome P450 3A4, sequence (P08684 whole entry): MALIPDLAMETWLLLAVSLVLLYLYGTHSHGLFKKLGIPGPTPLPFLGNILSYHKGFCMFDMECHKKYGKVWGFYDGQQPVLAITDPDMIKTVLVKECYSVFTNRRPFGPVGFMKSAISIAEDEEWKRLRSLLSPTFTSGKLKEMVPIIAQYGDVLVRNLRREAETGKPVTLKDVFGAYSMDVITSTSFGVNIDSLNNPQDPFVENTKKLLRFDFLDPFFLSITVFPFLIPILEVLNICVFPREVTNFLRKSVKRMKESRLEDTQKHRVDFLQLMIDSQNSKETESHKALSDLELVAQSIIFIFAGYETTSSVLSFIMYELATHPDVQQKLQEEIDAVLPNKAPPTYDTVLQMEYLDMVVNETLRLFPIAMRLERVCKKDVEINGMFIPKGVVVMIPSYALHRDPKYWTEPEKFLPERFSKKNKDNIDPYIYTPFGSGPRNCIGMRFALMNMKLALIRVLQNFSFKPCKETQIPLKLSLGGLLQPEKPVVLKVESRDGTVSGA

[7] = MRT in Sprague-Dawley rat at 5 mg/kg, iv measured up to 24 hrs by LC-MS/MS analysis; assay type: ADME, organism-based; conditions: in vivo
[8] = Volume of distribution at steady state in Sprague-Dawley rat at 5 mg/kg, iv measured up to 24 hrs by LC-MS/MS analysis; assay type: ADME, organism-based; conditions: in vivo, read-out: Vdss
HaCaT = experiment: Downregulation of CYP1A1 gene expression in AhR knockdown human HaCaT cells incubated for 48 hrs by qRT-PCR analysis; assay type: functional, cell-based
[9] = Clearance in Sprague-Dawley rat at 5 mg/kg, iv measured up to 24 hrs by LC-MS/MS analysis; assay type: ADME, organism-based; conditions: in vivo
[10] = molecular target: T1, Aryl hydrocarbon receptor; experiment: Induction of Ahr nuclear translocation in human HaCaT cells at 10 uM incubated for 90 mins by immunofluorescence analysis; assay type: cell-based; conditions: 1.5 h
[11] = molecular target: T2, Nuclear factor erythroid 2-related factor 2 (Homo sapiens) (UniProt Q16236); experiment: Activation of Nrf2 expression in human HaCaT cells up to 10 uM by qRT-PCR analysis; assay type: cell-based; conditions: filed as activator
T2 sequence (whole entry): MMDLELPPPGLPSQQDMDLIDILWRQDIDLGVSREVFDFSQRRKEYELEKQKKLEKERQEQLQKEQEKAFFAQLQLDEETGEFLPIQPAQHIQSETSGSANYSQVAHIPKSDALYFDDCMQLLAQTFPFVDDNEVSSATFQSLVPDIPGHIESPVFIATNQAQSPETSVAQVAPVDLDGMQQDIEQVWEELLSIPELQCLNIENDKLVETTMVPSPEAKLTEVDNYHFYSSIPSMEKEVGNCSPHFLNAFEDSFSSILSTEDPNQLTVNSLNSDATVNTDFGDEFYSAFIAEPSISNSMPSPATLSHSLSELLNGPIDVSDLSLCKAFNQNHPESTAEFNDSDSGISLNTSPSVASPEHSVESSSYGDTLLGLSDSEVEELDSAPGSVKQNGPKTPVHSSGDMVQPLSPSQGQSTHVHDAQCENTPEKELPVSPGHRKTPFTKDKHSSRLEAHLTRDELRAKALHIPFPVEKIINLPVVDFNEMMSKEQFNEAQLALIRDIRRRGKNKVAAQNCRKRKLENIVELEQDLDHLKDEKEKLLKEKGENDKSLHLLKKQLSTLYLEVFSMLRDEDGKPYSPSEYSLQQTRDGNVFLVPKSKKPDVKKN

[12] = Cmax in Sprague-Dawley rat at 10 mg/kg, po measured up to 24 hrs by LC-MS/MS analysis; assay type: ADME, organism-based; parameters: time < 24 hrs, dose 10 mg/kg, route po; conditions: in vivo
Mus musculus [13] = experiment: Anti-psoriatic activity in IMQ-induced BALB/c psoriasis mouse model assessed as reduction in IL-17a expression at 0.1 to 1 % treated topically by qRT-PCR analysis; assay type: functional, organism-based; conditions: dose 0.1-1 %
[14] = AUC (0 to infinity) in Sprague-Dawley rat at 10 mg/kg, po measured up to 24 hrs by LC-MS/MS analysis; assay type: ADME, organism-based; parameters: time < 24 hrs, dose 10 mg/kg, route po; conditions: in vivo
[15] = molecular target: T1, Aryl hydrocarbon receptor; experiment: Induction of Ahr signalling in human HaCaT cells assessed as upregulation of IVL expression incubated for 48 hrs; assay type: cell-based
Mus musculus [16] = experiment: Anti-psoriatic activity in IMQ-induced BALB/c psoriasis mouse model assessed as reduction in scaling at 0.1 to 1 % treated topically by H and E staining based analysis; assay type: functional, organism-based; conditions: dose 0.1-1 %
[17] = Solubility of the compound incubated for 48 hrs under shaking condition by LC/MS analysis; assay type: physicochemical
Mus musculus [18] = experiment: Anti-psoriatic activity in IMQ-induced BALB/c psoriasis mouse model assessed as reduction in erythema at 0.1 to 1 % treated topically by H and E staining based analysis; assay type: functional, organism-based; conditions: dose 0.1-1 %
[19] = molecular target: T1, Aryl hydrocarbon receptor; experiment: Induction of Ahr signalling in human HaCaT cells assessed as upregulation of HRNR expression incubated for 48 hrs; assay type: cell-based
Mus musculus [20] = experiment: Anti-psoriatic activity in IMQ-induced BALB/c psoriasis mouse model assessed as reduction in skin thickening at 5 to 20 mg/kg, po by H and E staining based analysis; assay type: functional, organism-based; conditions: dose 5-20 mg/kg

Brc1ccc(-c2nc3ccc(Br)cn3n2)cc1
AUC(0-t) at 24 h [1]: 1400 ng·h/mL
IC50 (Cytochrome P450 2C9): > 10 µM
efflux ratio [2]: 2.34
MRT [3]: 1.82 h
IC50 [4]: > 10 µM
Activity (Mus musculus [5]): Active
Activity [6]: Active
IC50 (Cytochrome P450 3A4): > 10 µM
MRT [7]: 0.89 h
Vd [8]: 1.02 L/kg
Activity (HaCaT): Active
clearance [9]: 19 mL/min/kg
Activity [10]: Active
Activity [11]: Active
Cmax [12]: 685 ng/mL
Activity (Mus musculus [13]): Active
AUC(0-inf) [14]: 1420 ng·h/mL
Activity [15]: Active
Activity (Mus musculus [16]): Active
solubility thermodynamic at 48 h [17]: 17.2 µg/mL (≈ 48.6 µM)
Activity (Mus musculus [18]): Active
Activity [19]: Active
Activity (Mus musculus [20]): Active
